From patent US20230338337A1, “BIOMARKERS FOR CANCER THERAPY USING MDM2 ANTAGONISTS” (OTSUKA PHARMACEUTICAL CO., LTD., priority 2019, published 2023)

What was measured:
[1] = system: SJSA-1 (p53 wild-type, MDM2 amplified osteosarcoma); assay: Protocol A: SRB growth inhibition assay; settings: read-out: SJSA-1 IC50 (μM) (Protocol A)
SJSA-1 = assay: Protocol B: CellTiter-Glo cell viability assay; settings: read-out: SJSA1 IC50 (μM) (Protocol B); Protocol B
[2] = molecular target: MDM2-p53 interaction (in vitro translated MDM2) (Homo sapiens (Human), UniProt Q00987); assay: MDM2-p53 interaction 96-well plate binding assay (ELISA); settings: for MDM2 % inhibition at 0.0010: at 0.0010 μM
MDM2-p53 interaction (in vitro translated MDM2), sequence (Q00987 whole entry): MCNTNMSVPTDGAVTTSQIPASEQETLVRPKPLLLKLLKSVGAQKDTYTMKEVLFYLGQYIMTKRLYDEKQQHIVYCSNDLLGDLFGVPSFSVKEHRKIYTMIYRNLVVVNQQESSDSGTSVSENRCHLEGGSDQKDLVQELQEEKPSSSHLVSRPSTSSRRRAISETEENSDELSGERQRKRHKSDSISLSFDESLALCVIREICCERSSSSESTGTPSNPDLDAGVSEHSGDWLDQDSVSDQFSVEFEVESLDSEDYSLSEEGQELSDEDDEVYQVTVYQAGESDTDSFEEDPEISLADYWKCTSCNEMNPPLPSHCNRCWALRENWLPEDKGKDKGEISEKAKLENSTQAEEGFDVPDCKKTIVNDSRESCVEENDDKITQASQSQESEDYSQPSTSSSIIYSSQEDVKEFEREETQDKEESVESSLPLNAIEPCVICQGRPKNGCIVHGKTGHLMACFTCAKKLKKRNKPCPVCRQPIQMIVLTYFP

| Substance | IC50 [1] | IC50 (SJSA-1) | MDM2 % at concentration [2] | MDM2 % inhibition at 0.0010 [2] | IC50 ([2]; read-out: MDM2 IC50) | MDM2 % inhibition at 0.00030 ([2]; at 0.00030 μM) |
| --- | --- | --- | --- | --- | --- | --- |
| 1-({[(1R)-1-(4-chlorophenyl)-2-[(5-chloropyridin-2-yl)methyl]-7-fluoro-5-{1-hydroxy-1-[1-(2-hydroxyethyl)piperidin-4-yl]ethyl}-3-oxo-2,3-dihydro-1H-isoindol-1-yl]oxy}methyl)cyclopropane-1-carbonitrile [Example 420] | 0.49 µM | 0.87 µM | 68%@0.0010 |  |  |  |
| 1-({[(1R)-1-(4-chlorophenyl)-2-[(5-chloropyrimidin-2-yl)methyl]-7-fluoro-5-[1-hydroxy-1-(1-methyl-1H-imidazol-4-yl)propyl]-3-oxo-2,3-dihydro-1H-isoindol-1-yl]oxy}methyl)cyclopropane-1-carboxamide [Example 486] | 0.075 µM | 0.051 µM |  | 59%@0.0010 |  |  |
| 2-{[(1R)-1-(4-chlorophenyl)-1-[(1-cyanocyclopropyl)methoxy]-7-fluoro-5-[1-hydroxy-1-(1-methyl-1H-imidazol-4-yl)propyl]-3-oxo-2,3-dihydro-1H-isoindol-2-yl]methyl}pyrimidine-5-carbonitrile [Example 462] | 0.073 µM | 0.047 µM |  | 80%@0.0010 |  |  |
| 2-{[(1R)-1-(4-chlorophenyl)-7-fluoro-1-({1-[hydroxydideuteromethyl]cyclopropyl}dideuteromethoxy)-5-(2-hydroxypropan-2-yl)-3-oxo-2,3-dihydro-1H-isoindol-2-yl]methyl}pyrimidine-5-carbonitrile [Example 513] | 0.26 µM | 0.38 µM |  |  | 3.1 nM |  |
| 2-{[(1R)-1-(4-chlorophenyl)-7-fluoro-5-[1-(4-fluoro-1-methylpiperidin-4-yl)-1-hydroxypropyl]-1-methoxy-3-oxo-2,3-dihydro-1H-isoindol-2-yl]methyl}pyrimidine-5-carbonitrile [Example 575] | 0.028 µM | 0.066 µM |  | 38%@0.0010 |  |  |
| 2-{[(1R)-1-(4-chlorophenyl)-7-fluoro-5-[1-(4-fluoro-1-methylpiperidin-4-yl)-1-hydroxypropyl]-3-oxo-1-[(3S)-oxolan-3-yloxy]-2,3-dihydro-1H-isoindol-2-yl]methyl}pyrimidine-5-carbonitrile [Example 561] | 0.021 µM | 0.065 µM |  | 47%@0.0010 |  |  |
| 2-{[(1R)-1-(4-chlorophenyl)-7-fluoro-5-{1-hydroxy-1-[trans-4-hydroxycyclohexyl]propyl}-1-(2-hydroxyethoxy)-3-oxo-2,3-dihydro-1H-isoindol-2-yl]methyl}pyrimidine-5-carbonitrile [Example 510] | 0.084 µM | 0.073 µM |  | 79%@0.0010 |  |  |
| 6-{[(1R)-1-(4-chlorophenyl)-7-fluoro-3-oxo-1-[(3S)-oxolan-3-yloxy]-5-[2,2,2-trifluoro-1-hydroxy-1-(1-methyl-1H-pyrazol-4-yl)ethyl]-2,3-dihydro-1H-isoindol-2-yl]methyl}pyridine-3-carbonitrile [Example 428] | 0.11 µM |  |  | 65%@0.0010 |  |  |
| 6-{[(1R)-1-(4-chlorophenyl)-7-fluoro-5-[1-(4-fluorooxan-4-yl)-1-hydroxypropyl]-1-[(2R)-2-hydroxypropoxy]-3-oxo-2,3-dihydro-1H-isoindol-2-yl]methyl}pyridine-3-carbonitrile [Example 497] | 0.039 µM |  |  | 83%@0.0010 |  |  |
| 6-{[(1R)-1-(4-chlorophenyl)-7-fluoro-5-[1-hydroxy-1-(1-methyl-1H-imidazol-4-yl)propyl]-1-(2-methoxyethoxy)-3-oxo-2,3-dihydro-1H-isoindol-2-yl]methyl}pyridine-3-carbonitrile [Example 430] | 0.11 µM |  |  | 59%@0.0010 |  |  |
| 6-{[(1R)-1-(4-chlorophenyl)-7-fluoro-5-{1-hydroxy-1-[trans-4-hydroxycyclohexyl]propyl}-1-methoxy-3-oxo-2,3-dihydro-1H-isoindol-2-yl]methyl}pyridine-3-carbonitrile [Example 521] | 0.035 µM |  |  | 77%@0.0010 |  |  |
| (3R)-2-[(5-chloro-3-hydroxypyridin-2-yl)methyl]-3-(4-chlorophenyl)-4-fluoro-6-[1-hydroxy-1-(1-methyl-1H-imidazol-4-yl)propyl]-3-[cis-3-hydroxycyclobutoxy]-2,3-dihydro-1H-isoindol-1-one [Example 487] | 0.12 µM |  |  | 59%@0.0010 |  |  |
| (3R)-3-(4-chlorophenyl)-2-[(4-chlorophenyl)methyl]-4-fluoro-3-{[1-(hydroxymethyl)cyclopropyl]methoxy}-6-(2-hydroxypropan-2-yl)-2,3-dihydro-1H-isoindol-1-one [Example 2] | 1.7 µM | 3.4 µM |  |  |  |  |

Continued, values first:

| IC50 [1] | IC50 (SJSA-1) | MDM2 % at concentration [2] | MDM2 % inhibition at 0.0010 [2] | IC50 ([2]; read-out: MDM2 IC50) | MDM2 % inhibition at 0.00030 ([2]; at 0.00030 μM) | Substance |
| --- | --- | --- | --- | --- | --- | --- |
| 0.11 µM |  | 62%@0.0010 |  |  |  | (3R)-3-(4-chlorophenyl)-2-[(5-chloropyridin-2-yl)methyl]-4-fluoro-6-{1-hydroxy-1-[1-(2-hydroxyacetyl)piperidin-4-yl]ethyl}-3-methoxy-2,3-dihydro-1H-isoindol-1-one [Example 296] |
| 0.045 µM |  |  | 65%@0.0010 |  |  | (3R)-3-(4-chlorophenyl)-2-[(5-chloropyrimidin-2-yl)methyl]-4-fluoro-6-[1-(4-fluoro-1-methylpiperidin-4-yl)-1-hydroxypropyl]-3-(2-hydroxyethoxy)-2,3-dihydro-1H-isoindol-1-one [Example 565] |
| 0.19 µM |  |  |  |  | 64%@0.0003 | (3R)-3-(4-chlorophenyl)-2-[(5-chloropyrimidin-2-yl)methyl]-4-fluoro-6-[1-(4-fluoropiperidin-4-yl)-1-hydroxypropyl]-3-[(3S)-oxolan-3-yloxy]-2,3-dihydro-1H-isoindol-1-one [Example 541] |
| 0.032 µM |  |  | 86%@0.0010 |  |  | (3R)-3-(4-chlorophenyl)-2-[(5-chloropyrimidin-2-yl)methyl]-4-fluoro-6-[1-(4-fluoropiperidin-4-yl)-1-hydroxypropyl]-3-methoxy-2,3-dihydro-1H-isoindol-1-one [Example 544] |
| 0.028 µM |  |  | 71%@0.0010 |  |  | (3R)-3-(4-chlorophenyl)-2-[(5-chloropyrimidin-2-yl)methyl]-4-fluoro-6-[1-hydroxy-1-(1-methyl-1H-imidazol-4-yl)propyl]-3-[(3S)-oxolan-3-yloxy]-2,3-dihydro-1H-isoindol-1-one [Example 475] |
| 0.031 µM |  |  | 70%@0.0010 |  |  | (3R)-3-(4-chlorophenyl)-2-[(5-chloropyrimidin-2-yl)methyl]-4-fluoro-6-[(1S)-1-hydroxy-1-[1-(oxetan-3-yl)piperidin-4-yl]propyl]-3-methoxy-2,3-dihydro-1H-isoindol-1-one [Example 551] |
| 0.019 µM |  |  | 82%@0.0010 |  |  | (3R)-3-(4-chlorophenyl)-2-[(5-chloropyrimidin-2-yl)methyl]-4-fluoro-6-{1-hydroxy-1-[trans-4-hydroxycyclohexyl]propyl}-3-(2-hydroxyethoxy)-2,3-dihydro-1H-isoindol-1-one [Example 517] |
